Results on 12 compounds are retold here after patent US20080015146A1, “Dpp-IV Inhibitors” (SANTHERA PHARMACEUTICALS (DEUTSCHLAND) AG, priority 2004, published 2008).

Molecules are shown by their SMILES. Structures can show the parent of a compound that is named as a salt.

T1 sequence (P27487 31-766): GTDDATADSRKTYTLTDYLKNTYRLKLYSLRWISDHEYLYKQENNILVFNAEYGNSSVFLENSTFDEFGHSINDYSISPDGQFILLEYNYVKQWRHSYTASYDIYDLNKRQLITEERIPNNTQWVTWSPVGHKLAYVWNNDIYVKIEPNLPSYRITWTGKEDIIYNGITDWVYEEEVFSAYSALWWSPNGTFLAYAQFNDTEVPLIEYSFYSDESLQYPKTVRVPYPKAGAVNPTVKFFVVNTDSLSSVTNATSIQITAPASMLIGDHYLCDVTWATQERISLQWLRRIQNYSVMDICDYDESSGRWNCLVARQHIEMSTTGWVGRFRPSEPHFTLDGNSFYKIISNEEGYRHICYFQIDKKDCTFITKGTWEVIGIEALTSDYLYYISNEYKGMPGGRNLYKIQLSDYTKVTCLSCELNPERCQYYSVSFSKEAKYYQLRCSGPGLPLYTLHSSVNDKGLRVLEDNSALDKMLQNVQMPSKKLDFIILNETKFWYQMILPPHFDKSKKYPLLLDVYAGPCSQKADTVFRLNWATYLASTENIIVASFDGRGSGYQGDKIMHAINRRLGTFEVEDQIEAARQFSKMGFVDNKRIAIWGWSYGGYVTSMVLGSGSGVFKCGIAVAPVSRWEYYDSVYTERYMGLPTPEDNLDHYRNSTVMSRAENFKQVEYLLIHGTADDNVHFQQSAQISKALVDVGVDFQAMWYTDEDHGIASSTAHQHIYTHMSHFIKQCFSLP

This assay has as its target T1, DPP-IV (Homo sapiens, UniProt P27487).
T1 construct: Soluble human DPP-IV lacking the transmembrane anchor (Gly31-Pro766); Pre-Pro-alpha-mating factor secretion leader (N, cleaved yes); made in house
Put plainly: Continuous fluorimetric assay of inhibition of DPP-IV peptidase activity (cleavage of Gly-Pro-AMC). Conditions: substrate Gly-Pro-AMC 16 μM, pH 7.4, 25° C., 1% DMSO; assays carried out with human and porcine DPP-IV (comparable activities). In kind it is biochemical. Here is the method: Inhibition of DPP-IV peptidase activity was monitored with a continuous fluorimetric assay. This assay is based on the cleavage of the substrate Gly-Pro-AMC (Bachem) by DPP-IV, releasing free AMC. The assay is carried out in 96-well microtiterplates. In a total volume of 100 μl compounds are preincubated with […] DPP-IV employing a buffer containing 10 mM Hepes, 150 mM NaCl, 0.005% Tween 20 (pH 7.4). […] The final concentration of DMSO is 1%. The inhibitory potential of the compounds were determined.
Soluble human DPP-IV lacking the transmembrane anchor (Gly31-Pro766) was expressed in a recombinant YEAST-strain as Pre-Pro-alpha-mating fusion. The secreted product (rhuDPP-IV-Gly31-Pro766) was purified from fermentation broth (>90% purity).
In turn, `COCC1(c2noc([C@@H]3CCCN3C(=O)C[C@H](N)Cc3cc(F)c(F)cc3F)n2)CC1` [Example 25, (R)-3-Amino-1-{(S)-2-[3-(1-methoxymethyl-cyclopropyl)-[1,2,4]oxadiazol-5-yl]-pyrrolidin-1-yl}-4-(2,4,5-trifluoro-phenyl)-butan-1-one formate salt] yielded an IC50 of less than 100 nM.
`CS(=O)(=O)c1ccc(-c2noc([C@H]3CCCN3C(=O)C[C@H](N)Cc3ccccc3F)n2)cc1` [Example 31, (R)-3-Amino-4-(2-fluoro-phenyl)-1-{(R)-2-[3-(4-methanesulphonyl-phenyl) [1,2,4]oxadiazol-5-yl]-pyrrolidin-1-yl}-butan-1-one hydrochloride] returned an IC50 of less than 100 nM.
On to `N[C@@H](CC(=O)N1CCC[C@H]1c1nc(C2CC2)no1)Cc1ccccc1F` [Example 11, (R)-3-Amino-1-[(S)-2-(3-cyclopropyl-[1,2,4]oxadiazol-5-yl)-pyrrolidin-1-yl]-4-(2-fluorophenyl)-butan-1-one trifluoracetic acid salt], for which the 50% inhibitory concentration (IC50) was less than 100 nM.
The compound `N[C@@H](CC(=O)N1CCC[C@H]1c1cn(-c2ccccc2)nn1)Cc1ccccc1F` [Example 42, formate salt] registered a concentration for half-maximal inhibition (IC50) of 101 to 1000 nM.
Consider `N[C@@H](CC(=O)N1CC(N2CCN(c3ccccn3)CC2)C1)Cc1ccccc1F` [Example 51, (3R)-3-Amino-4-(2-fluoro-phenyl)-1-[3-(4-pyridin-2-yl-piperazin-1-yl)-azetidin-1-yl]-butan-1-one], for which the IC50 is 1000 to 2000 nM.
For the compound `N[C@@H](CC(=O)N1CCC[C@H]1c1nc(-c2cccc(Cl)c2)no1)Cc1ccccc1F` [Example 2, (R)-3-Amino-1-{(S)-2-[3-(3-chloro-phenyl)[1,2,4]oxadiazol-5-yl)-pyrrolidin-1-yl}-4-(2-fluoro-phenyl)-butan-1-one hydrochloride], the IC50 was less than 100 nM.
`N[C@@H](CC(=O)N1CCC[C@H]1c1nc(-c2cccc(F)c2)no1)Cc1cccc(Cl)c1` [Example 6, (R)-3-Amino-4-(3-chloro-phenyl)-1-{(S)-2-[3-(3-fluoro-phenyl)-[1,2,4]oxadiazol-5-yl]-pyrrolidin-1-yl}-butan-1-one trifluoroacetic acid salt] had an IC50 of less than 100 nM.
In turn, `COCC(C)(C)c1noc([C@@H]2CCCN2C(=O)C[C@H](N)Cc2cc(F)c(F)cc2F)n1` [Example 24, (R)-3-Amino-1-{(S)-2-[3-(2-methoxy-1,1-dimethyl-ethyl)-[1,2,4]oxadiazol-5-yl]-pyrrolidin-1-yl}-4-(2,4,5-trifluoro-phenyl)-butan-1-one formate salt] gave an IC50 of less than 100 nM.
On to `CS(=O)(=O)c1ccc(-c2noc([C@@H]3CCCN3C(=O)C[C@H](N)Cc3ccccc3F)n2)cc1` [Example 4, (R)-3-Amino-4-(2-fluoro-phenyl)-1-{(S)-2-[3-(4-methanesulphonyl-phenyl)[1,2,4]oxadiazol-5-yl]-pyrrolidin-1-yl}-butan-1-one hydrochloride], for which the half-inhibitory concentration (IC50) is less than 100 nM.
In turn, `N[C@@H](CC(=O)N1CC(F)(F)C[C@H]1c1nc(C2CC2)no1)Cc1cc(F)c(F)cc1F` [Example 27, (R)-3-Amino-1-[(S)-2-(3-cyclopropyl-[1,2,4]oxadiazol-5-yl)-4,4-difluoro-pyrrolidin-1-yl]-4-(2,4,5-trifluoro-phenyl)-butan-1-one formate salt] yielded an IC50 of less than 100 nM.
In turn, `N[C@@H](CC(=O)N1CCC[C@H]1c1noc(-c2ccc(F)cn2)n1)Cc1cc(F)c(F)cc1F` [Example 36, (R)-3-Amino-1-{(S)-2-[5-(5-fluoro-pyridin-2-yl)-[1,2,4]oxadiazol-3-yl]-pyrrolidin-1-yl}-4-(2,4,5-trifluoro-phenyl)-butan-1-one formate salt] gave a half-inhibitory concentration (IC50) of less than 100 nM.
Under `N[C@@H](CC(=O)N1CCC[C@@H]1c1nc(-c2ccccn2)no1)Cc1ccccc1F` [Example 32, (R)-3-Amino-4-(2-fluoro-phenyl)-1-[(R)-2-(3-pyridin-2-yl-[1,2,4]oxadiazol-5-yl)pyrrolidin-1-yl]-butan-1-one hydrochloride] stands 101 to 1000 nM.

For orientation: IC50 means the concentration at which inhibition is half-maximal. The low end stands for greater potency in that assay, the high end for weaker potency in that assay.
